Experiments:
Assay type in all cases: in vivo, male Sprague-Dawley I.O.P.S. rats
[1] = system: granuloma; test: Local anti-inflammatory activity: inhibition of granuloma formation around implanted cotton wool pellet; details: for R 1 (relative local anti-inflammatory activity compared with betamethasone 17,21-dipropionate): D.P.B. = 1, calculated from ED50; for R 1 (relative local anti-inflammatory activity compared with betamethasone 17,21-dipropionate) / ED50 (local anti-inflammatory activity, 50% inhibition in granuloma weight): Table 1; for ED50 (local anti-inflammatory activity, 50% inhibition in granuloma weight): rat, cotton pellet granuloma, six days after implantation; for activity compared with betamethasone 17,21-dipropionate (times greater): local anti-inflammatory test
Procedure: A. Winter and C. C. Porter (J. Am. Pharm. Ass. 1957, 46, 9, pages 515-519).
(§1) The principle of the test consists in implanting a pellet of cotton wool in the dorsal subcutaneous tissue of the animal. The corticoids to be studied are added to the pellet so that the following tests can be carried out:
(1) Determination of the local anti-inflammatory activity
The presence of products within the pellet may inhibit or prevent the formation of a granuloma.
(§2) The animals are divided into random homogeneous groups of 10 male Sprague-Dawley I.O.P.S. rats with a body weight of between 100 and 120 grams.
(§3) The pellets to be implanted weigh from 35 to 40 mg and are prepared from balls of dental cotton wool. Before being inserted, each pellet is weighed and impregnated with the precise quantity of the product which is to be studied, dissolved in 0.2 ml of chloroform. The chloroform is eliminated by evaporation over a period of 24 hours at ambient temperature.
(§4) Before implantation, each pellet is impregnated with a solution of antibiotics:
Streptomycin 0.1 gram/ml.
(§5) The animals are anaesthetised with ether, and then two pellets are implanted in each animal in the dorsal subcutaneous tissue, on each side of the median line:
(§6) on the left, the pellet containing the product to be tested (treated animal) or the carrier only (control animal);
(§7) on the right, the pellet containing the carrier only.
(§8) The animals are given normal food and are sacrificed six days after the pellets have been implanted.
(1) Local anti-inflammatory activity
The pellets surrounded by granulomatous tissue are carefully removed and weighed, and then dried until a constant weight is obtained.
The relative activity of the test products compared with betamethasone 17,21-dipropionate is calculated according to the following equation: [formula]

[2] = system: thymus; test: Systemic activity after local administration: effect on the weight of the thymus; details: rat, in vivo, 8640 min
Procedure: (§9) The pharmacological activity of the products described in the invention was tested in the rat using a technique similar to that described by C. A. Winter and C. C. Porter (J. Am. Pharm. Ass. 1957, 46, 9, pages 515-519).
as §1
(§10) (2) Determination of the systemic activity of the products after local administration
(§11) Local application of the corticoids may result, inter alia, in:
(a) a reduction in the defence systems of the organism, the most notable sign of which is a reduction in the weight of the animals' thymuses.
as §2, §3, §4, §5, §6, §7, §8
(2) Determination of the systemic effect
The thymuses are taken from the same animals and weighed. Using the same type of calculation, an ED 50 is determined, which corresponds to the dosage of product resulting in a 50% decrease in weight of the thymuses, compared with the control animals.

[3] = Systemic activity after local administration: effect on weight gain; details: rat, in vivo, 8640 min
Procedure: as §9, §1, §10, §11
(b) Disruption of the protein metabolism which causes tissue fusion, resulting in an inhibition of the weight increase in animals.
as §2, §3, §4, §5, §6, §7, §8
(b) Effect on weight gain
The weight gain over six days is determined on the animals before they are sacrificed.
The activity of the products was expressed as the percentage inhibition in the weight gain of the treated animals compared with the weight gain in the control animals.
The ED 30 which corresponds to a 30% inhibition in the weight gain was determined.

SMILES | R 1 (relative local anti-inflammatory activity compared with betamethasone 17,21-dipropionate) [1] | ED50 (local anti-inflammatory activity, 50% inhibition in granuloma weight) [1] | ED50 (50% decrease in weight of the thymuses) [2] | R 2 (relative effect on thymus weight compared with D.P.B.) [2] | ED30 (30% inhibition in the weight gain) [3] | R 3 (relative activity on weight gain compared with D.P.B.) [3] | activity compared with betamethasone 17,21-dipropionate (times greater) [1]
CCC(=O)O[C@]1(C(=O)CSC(=O)CC)CC[C@H]2[C@@H]3C[C@H](C)C4=CC(=O)C=C[C@]4(C)[C@H]3[C@@H](O)C[C@@]21C [Ex. 5, 11β-hydroxy-6α-methyl-pregna-1,4-diene-3,20-dione (or 6α-methylprednisolone) 17-propionate, 21-thiopropionate] | 7.7 | 0.210 mg/pellet | > 1 mg/pellet | < 0.86 | > 1 mg/pellet | < 0.8 | 
CCCCC(=O)O[C@]1(C(=O)CSC(=O)CCCC)CC[C@H]2[C@@H]3C[C@H](C)C4=CC(=O)C=C[C@]4(C)[C@H]3[C@@H](O)C[C@@]21C [Ex. 6, 11β-hydroxy-6α-methyl-pregna-1,4-diene-3,20-dione (or 6α-methylprednisolone) 17-valerate, 21-thiovalerate] | 8.9 | 0.180 mg/pellet | > 1 mg/pellet | < 0.86 | > 1 mg/pellet | < 0.8 | 
CCCCC(=O)O[C@]1(C(=O)CSC(C)=O)CC[C@H]2[C@@H]3C[C@H](C)C4=CC(=O)C=C[C@]4(C)[C@H]3[C@@H](O)C[C@@]21C [Ex. 7, 11β-hydroxy-6α-methyl-pregna-1,4-diene-3,20-dione (or 6α-methylprednisolone) 17-valerate, 21-thioacetate] | 2.0 | 0.800 mg/pellet | > 1 mg/pellet | < 0.86 | > 1 mg/pellet | < 0.8 | 
CC(=O)OC1(C(=O)CSC(C)=O)C(C)CC2C3CCC4=CC(=O)C=CC4(C)C3(F)C(O)CC21C (stereo not drawn) [Ex. 8, 9α-fluoro-11β-hydroxy-16β-methyl-pregna-1,4-diene-3,20-dione (or betamethasone) 17-acetate, 21-thioacetate] | 22 | 0.072 mg/pellet | 1.20 mg/pellet | 0.71 | 1 mg/pellet | 0.8 | 
CCC(=O)SCC(=O)C1(OC(C)=O)C(C)CC2C3CCC4=CC(=O)C=CC4(C)C3(F)C(O)CC21C (stereo not drawn) [Ex. 9, 9α-fluoro-11β-hydroxy-16β-methyl-pregna-diene-3,20-dione (or betamethasone) 17-acetate, 21-thiopropionate] | 16 | 0.100 mg/pellet | 1.70 mg/pellet | 0.51 | 1 mg/pellet | 0.8 | 
CCC(=O)OC1(C(=O)CSC(C)=O)C(C)CC2C3CCC4=CC(=O)C=CC4(C)C3(F)C(O)CC21C (stereo not drawn) [Ex. 10, 9α-fluoro-11β-hydroxy-16β-methyl-pregna-1,4-diene-3,20-dione (or betamethasone) 17-propionate, 21-thioacetate] | 124 | 0.013 mg/pellet | 0.25 mg/pellet | 3.40 | > 1 mg/pellet | < 0.8 | more than 100 times
CCC(=O)OC1(C(=O)CSC(=O)CC)C(C)CC2C3CCC4=CC(=O)C=CC4(C)C3(F)C(O)CC21C (stereo not drawn) [Ex. 11, 9α-fluoro-11β-hydroxy-16β-methyl-pregna-1,4-diene-3,20-dione (or betamethasone) 17-propionate, 21-thiopropionate] | 134 | 0.012 mg/pellet | 0.46 mg/pellet | 1.9 | 0.8 mg/pellet | 1 | more than 100 times
CCCCC(=O)OC1(C(=O)CSC(=O)CCCC)C(C)CC2C3CCC4=CC(=O)C=CC4(C)C3(F)C(O)CC21C (stereo not drawn) [Ex. 12, 9α-fluoro-11β-hydroxy-16β-methyl-pregna-1,4-diene-3,20-dione (or betamethasone) 17-valerate, 21-thiovalerate] | > 129 | < 0.0125 mg/pellet | > 0.8 mg/pellet | < 1 | > 0.8 mg/pellet | < 1 | more than 100 times
CCCCC(=O)OC1(C(=O)CSC(C)=O)C(C)CC2C3CCC4=CC(=O)C=CC4(C)C3(F)C(O)CC21C (stereo not drawn) [Ex. 13, 9α-fluoro-11β-hydroxy-16β-methyl-pregna-1,4-diene-3,20-dione (or betamethasone) 17-valerate, 21-thioacetate] | 32.2 | 0.050 mg/pellet | 0.8 mg/pellet | 1.1 | 0.65 mg/pellet | 1.23 | 

— US4427671A, “Steroids esterified in position 17 and thioesterified in position 21, a process for preparing them and their use as medicaments” (priority 1981, dated 1984)
